The text below walks through data of ChEMBL document CHEMBL1125506, “Fluoronaphthyridines as antibacterial agents. 6. Synthesis and structure-activity relationships of new chiral 7-(1-, 3-, 4-, and 6-methyl-2,5-diazabicyclo[2.2.1]heptan-2-yl)naphthyridine analogues of 7-[(1R,4R)-2,5- diazabicyclo[2.2.1]heptan-2-yl]-1-(1,1-dimethylethyl)-6-fluoro-1,4-dihy …” (J Med Chem, 1992).

Structures are written as SMILES. Values after ≈ are worked out from the molar mass of the structure shown.

The test system of series [1] is Mus musculus. As to the kind of experiment: Area under curve measured as conc vs time after intravenous administration to mice. Type of series: ADME, organism-based. Details: unit not given here. The note with it: in vivo.
Series [2] has as its system Enterococcus faecalis. As to the kind of experiment: In vitro antibacterial activity against Enterococcus faecalis A9809. The format is functional.
Series [3] deals with Mus musculus. As to the kind of experiment: In vivo efficacy on systemic infections caused by Staphylococcus aureus A15090 in mice after intramuscular administration. Type of series: functional. To be noted: im, read-out: PD50.
Series [4] relates to Streptococcus pneumoniae. As to the kind of experiment: In vitro antibacterial activity against Streptococcus pneumoniae A9585. The format is functional.
For series [5], the system named is Mus musculus. As to the kind of experiment: In vivo efficacy on systemic infections caused by Staphylococcus aureus A15090 in mice after peroral administration. Type of series: functional. To be noted: po, read-out: PD50.
The test system of series [6] is Mus musculus. As to the kind of experiment: In vivo efficacy on systemic infections caused by Pseudomonas aeruginosa A9843 in mice after peroral administration. The format is functional. The note with it: po, read-out: PD50.
Series [7] can be described thus: Peak concentration in blood after intravenous administration to mice. Type of series: ADME, organism-based. On the set-up: route intravenous. To be noted: mouse.
Series [8] in a line: Partition coefficient (logD). The format is physicochemical. The note with it: octanol/water.
In series [9] the test system is Escherichia coli. As to the kind of experiment: In vitro antibacterial activity against Escherichia coli A15119. Type of series: functional.
The subject of series [10] is Morganella morganii. As to the kind of experiment: In vitro antibacterial activity against Morganella morganii A15153. Type of series: functional.
The nature of series [11]: Plasma half-life after intravenous administration to mice. Type of series: ADME, organism-based. The note with it: mouse.
Series [12] can be described thus: Acute toxicity after peroral administration to mice. Type of series: organism-based. The note with it: mouse, in vivo, po.
Series [13] concerns Bacteroides fragilis. As to the kind of experiment: In vitro antibacterial activity against Bacteroides fragilis A-22,862. Type of series: functional.
Series [14] relates to Klebsiella pneumoniae. As to the kind of experiment: In vitro antibacterial activity against Klebsiella pneumoniae A9664. The format is functional.
The nature of series [15]: Peak concentration in blood after peroral administration to mice. The format is ADME, organism-based. Details: route oral. To be noted: mouse, po.
Series [16] has as its system Staphylococcus aureus. As to the kind of experiment: In vitro antibacterial activity against Staphylococcus aureus A9537. Type of series: functional.
Series [17] is described as follows: Plasma half-life after peroral administration to mice. The format is ADME, organism-based. The note with it: mouse, po.
Series [18] deals with Mus musculus. As to the kind of experiment: In vivo efficacy on systemic infections caused by Streptococcus pneumoniae A9585 in mice after peroral administration. The format is functional. To be noted: po, read-out: PD50.
Series [19] concerns Mus musculus. As to the kind of experiment: In vivo efficacy on systemic infections caused by Streptococcus pneumoniae A9585 in mice after intramuscular administration. Type of series: functional. To be noted: im, read-out: PD50.
For series [20], the system named is Mus musculus. As to the kind of experiment: In vivo efficacy on systemic infections caused by Escherichia coli A15119 in mice after intramuscular administration. Type of series: functional. The note with it: im, read-out: PD50.
The nature of series [21]: Acute toxicity after intravenous administration to mice. The format is organism-based. The note with it: mouse, in vivo.
A short description of series [22]: Solubility (water, 22C, pH 7.2). The format is physicochemical. The note with it: read-out: S.
Series [23] in a line: Percent urinary recovery in 24 hr after peroral administration to mice. The format is ADME, organism-based. To be noted: mouse, urine, po; read-out: UR.
Series [24] concerns Serratia marcescens. As to the kind of experiment: In vitro antibacterial activity against Serratia marcescens A20019. Type of series: functional.
Series [25] deals with Mus musculus. As to the kind of experiment: In vivo efficacy on systemic infections caused by Escherichia coli A15119 in mice after peroral administration. Type of series: functional. To be noted: po, read-out: PD50.
In series [26] the test system is Mus musculus. As to the kind of experiment: Area under curve measured as conc vs time after peroral administration to mice. Details: unit not given here. The note with it: in vivo, po. The format is ADME, organism-based.
Series [27] has as its system Pseudomonas aeruginosa. As to the kind of experiment: In vitro antibacterial activity against Pseudomonas aeruginosa A9843. The format is functional.
The subject of series [28] is Enterobacter cloacae. As to the kind of experiment: In vitro antibacterial activity against Enterobacter cloacae A9656. The format is functional.
A short description of series [29]: (§1) percent urinary recovery in 24 hr after intravenous administration to mice. The note with it: mouse, urine, read-out: UR. The format is ADME, organism-based.
Series [30] has as its system Proteus mirabilis. As to the kind of experiment: In vitro antibacterial activity against Proteus mirabilis A9900. Type of series: functional.
Series [31] deals with Mus musculus. As to the kind of experiment: In vivo efficacy on systemic infections caused by Pseudomonas aeruginosa A9843 in mice after intramuscular administration. Type of series: functional. The note with it: im, read-out: PD50.
In series [32] the test system is Mus musculus. The description is as §1. Type of series: functional, Urine.
Series [33] concerns Mus musculus. As to the kind of experiment: In vivo efficacy on systemic infections caused by Pseudomonas aeruginosa A9843 after peroarl administration in mice. Type of series: functional. The note with it: read-out: PD50.

As a reminder, the MIC is the lowest concentration that inhibits growth of the organism. By Cmax is commonly meant the maximum level reached in the sampled fluid or tissue. A word on the logD: it is lipophilicity at a set pH, counting ionised and neutral species. By half-life is commonly meant the time needed for the level to fall by half in the phase considered. Broadly, the LD50 is the dose expected to kill half of the subjects tested.

Consider `Cc1c(F)c(N2C[C@H]3C[C@@H]2CN3)nc2c1c(=O)c(C(=O)O)cn2C1CC1`, for which the values for the AUC in series [1] and in series [26] were 40 and 26, respectively. Further, the minimum inhibitory concentration (MIC) is 0.06 µg/mL (≈ 0.167 µM) in [2]; 0.06 µg/mL (≈ 0.167 µM) in [4]; 0.02 µg/mL (≈ 0.0558 µM) in [9]; 0.03 µg/mL (≈ 0.0837 µM) in series [10]; 1 µg/mL (≈ 2.79 µM) in series [13]; 0.008 µg/mL (≈ 0.0223 µM) in [14]. Moreover, the MIC was determined as 0.016 µg/mL (≈ 0.0446 µM) in series [16]; 0.006 µg/mL (≈ 0.0167 µM) in series [24]; 0.006 µg/mL (≈ 0.0167 µM) in series [27]; 0.002 µg/mL (≈ 0.00558 µM) in [28]; 0.03 µg/mL (≈ 0.0837 µM) in [30]. Further, the ED50 is 2.4 mg/kg in series [3]; 5.4 mg/kg in series [5]; 2.7 mg/kg in series [6]; 43.5 mg/kg in [18]; greater than 25 mg/kg in [19]; 0.2 mg/kg in [20]. For the same molecule, in [25], the ED50 stood at 0.9 mg/kg. Also, the Cmax worked out at 19000 ng/mL in [7] and 9000 ng/mL in [15]. The molecule also registered a pH-dependent lipophilicity (logD) in series [8] of 0.48. Further, the half-life in series [11] is 90 min; in series [17] it was 77 min. Moreover, the LD50 in series [12] was 1750 mg/kg; in series [21], 125 mg/kg. Further, the solubility in series [22] was determined as 20 µg/mL (≈ 55.8 µM). The dose excreted at 24 h in [23] was found to be 34%; in series [29], 41%.

As to `O=C(O)c1cn(C2CC2)c2cc(N3CCNCC3)c(F)cc2c1=O` [CIPROFLOXACIN], the MIC in series [2] is 0.5 µg/mL (≈ 1.51 µM); in series [4], 0.25 µg/mL (≈ 0.754 µM); in [10], 0.008 µg/mL (≈ 0.0241 µM); in [13] it was 1 µg/mL (≈ 3.02 µM); in series [14] it was 0.06 µg/mL (≈ 0.181 µM); in series [16], 0.06 µg/mL (≈ 0.181 µM). The figures for the MIC in [24] and in series [30] were 0.03 µg/mL (≈ 0.0905 µM) and 0.008 µg/mL (≈ 0.0241 µM), respectively. Also, the ED50 in [3] is 3.9 mg/kg; in series [5], 12.5 mg/kg; in [6], 2.6 mg/kg; in [31], 1.3 mg/kg; in series [18], greater than 50 mg/kg; in series [19] it was 28.7 mg/kg. Besides, the ED50 came to 0.05 mg/kg in series [20] and 1.4 mg/kg in series [25]. Moreover, the Cmax in series [7] was 22000 ng/mL; in [15] it was 6000 ng/mL. The molecule also returned a UR in series [32] of 25%. For the same molecule, the dose excreted at 24 h in series [23] was determined as 30%.

`C[C@@H]1N[C@@H]2C[C@H]1N(c1nc3c(cc1F)c(=O)c(C(=O)O)cn3-c1ccc(F)cc1F)C2.Cl`: the MIC in series [2] amounted to 1 µg/mL; in series [4], 1 µg/mL; in [9], 0.03 µg/mL; in [10], 0.5 µg/mL; in series [13], 4 µg/mL; in series [14], 0.13 µg/mL. Besides, the MIC in series [16] was 0.06 µg/mL; in series [24], 0.25 µg/mL; in series [27], 1 µg/mL; in [28] it was 0.13 µg/mL; in series [30], 0.5 µg/mL. Besides, the ED50 in [3] is 1 mg/kg; in [33], 3.1 mg/kg; in [5], 1.4 mg/kg; in series [31], 2.4 mg/kg; in series [18] it was greater than 50 mg/kg; in series [19], greater than 50 mg/kg. The molecule also yielded a logD in [8] of -0.14. Also, in series [22], the solubility was determined as 15 µg/mL.
